Test results as given in PMC10350927 (Journal of Medicinal Chemistry, 2023).
Changes are numbered by the printed parent chain.

Key:
[1] = target: T1, hmSUCNR1 (Mus musculus, UniProt Q99MT6, G84W/K269N/N18E); assay: BRET competition binding using 46 as tracer, hmSUCNR1
T1 sequence (Q99MT6 1-317 N18E/G84W/K269N): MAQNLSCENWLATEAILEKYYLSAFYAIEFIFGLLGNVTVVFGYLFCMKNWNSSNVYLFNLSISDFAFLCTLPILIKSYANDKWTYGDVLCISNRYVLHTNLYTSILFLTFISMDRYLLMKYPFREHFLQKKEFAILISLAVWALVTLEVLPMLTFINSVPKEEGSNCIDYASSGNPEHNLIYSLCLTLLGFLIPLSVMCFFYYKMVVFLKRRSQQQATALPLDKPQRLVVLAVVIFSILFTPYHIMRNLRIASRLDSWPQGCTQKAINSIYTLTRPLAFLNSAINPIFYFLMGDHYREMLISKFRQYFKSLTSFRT

[2] = target: T1, hmSUCNR1; assay: BRET competition binding using 22 as tracer, hmSUCNR1
[3] = target: T2, mSUCNR1 construct containing N18^1.31E, K269^7.32N, and G84^EL1W (Mus musculus, UniProt Q99MT6, G84W/K269N/N18E); assay: G protein activation BRET assay, mSUCNR1-N18E/G84W/K269N; type: cell-based
T2 construct: expressed in transfected cells; host or cells: HEK-293T
T2 sequence (Q99MT6 1-317 N18E/G84W/K269N): T1 sequence (Q99MT6 1-317 N18E/G84W/K269N)
Experimental: G protein activation assays were carried out using the open-source TRUPATH platform previously described.[36] HEK-293T cells were transfected with Gαi1-Rluc8, Gγ8-GFP^2, Gβ3 and either human, mouse, mouse-N18E/K269N, or mouse-N18E/G84W/K269N SUCNR1 in a 1:1:1:1 plasmid mass ratio using polyethyleneimine.

[4] = target: T3, hSUCNR1 (Homo sapiens, UniProt Q9BXA5); assay: BRET competition binding using 46 as tracer, hSUCNR1; details: […] 46, Kd = 310 nM
T3 sequence (Q9BXA5 1-334): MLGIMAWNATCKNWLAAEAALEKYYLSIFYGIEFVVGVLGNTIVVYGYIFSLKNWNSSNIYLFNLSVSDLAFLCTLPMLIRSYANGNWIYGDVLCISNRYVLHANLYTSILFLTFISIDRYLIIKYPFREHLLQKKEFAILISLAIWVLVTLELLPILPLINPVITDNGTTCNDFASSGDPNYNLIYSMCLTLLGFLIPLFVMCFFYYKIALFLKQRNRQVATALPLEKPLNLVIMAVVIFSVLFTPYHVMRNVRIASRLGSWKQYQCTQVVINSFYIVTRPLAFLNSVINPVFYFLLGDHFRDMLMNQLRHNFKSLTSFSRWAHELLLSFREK

[5] = target: T4, Nluc-mSUCNR1 (Mus musculus, UniProt Q99MT6); assay: cAMP assay, agonist potency at Nluc-mSUCNR1; details: N-terminally Nluc-tagged receptor
T4 sequence (Q99MT6 1-317): T1 sequence (Q99MT6 1-317 N18E/G84W/K269N) with E18N, W84G, N269K

[6] = target: T5, mSUCNR1 (Mus musculus, UniProt Q99MT6); details: transiently transfected HEK-293T cells
T5 sequence (Q99MT6 1-317): T1 sequence (Q99MT6 1-317 N18E/G84W/K269N) with E18N, W84G, N269K

[7] = target: T3, hSUCNR1; assay: cAMP assay, agonist potency at hSUCNR1; type: cell-based; set-up: expressed in transfected cells; host or cells: Flp-In T-REx 293; details: Flp-In T-REx 293 cells, mean ± SEM, minimum three independent experiments
[8] = target: T3, hSUCNR1; assay: BRET competition binding using 22 as tracer, hSUCNR1; details: 3 μM 22, Kd = 990 nM; mean ± SEM, three experiments
[9] = target: T5, mSUCNR1; assay: cAMP assay, agonist potency at mSUCNR1; type: cell-based; set-up: expressed in transfected cells; host or cells: Flp-In T-REx 293; details: Flp-In T-REx 293 cells; for cAMP mSUCNR1 pEC50: mean ± SEM, minimum three independent experiments
[10] = target: T5, mSUCNR1; assay: BRET competition binding using 22 as tracer, mSUCNR1; details: 1 μM 22, Kd = […]; highest unlabeled ligand 30 μΜ
[11] = target: T6, hmSUCNR1 (N18^1.31E, K269^7.32N, and G84^EL1W) (Mus musculus, UniProt Q99MT6, G84W/K269N/N18E); assay: cAMP assay, inhibition of succinate response at hmSUCNR1; type: cell-based; details: read-out: hmSUCNR1 cAMP pIC50 (converted)
T6 construct: mGlu5 glutamate receptor signal peptide (N); expressed in transfected cells; the methods describe Flp-In T-REx 293
T6 sequence (Q99MT6 1-317 N18E/G84W/K269N): T1 sequence (Q99MT6 1-317 N18E/G84W/K269N)

[12] = target: T3, hSUCNR1; assay: cAMP assay, inhibition of succinate response at hSUCNR1; type: cell-based; set-up: expressed in transfected cells; host or cells: Flp-In T-REx 293; details: inhibition of […] succinate response; mean ± SEM
[13] = target: T7, mSUCNR1-N18^1.31E/K269^7.32N (Mus musculus, UniProt Q99MT6, K269N/N18E); assay: G protein activation BRET assay, mSUCNR1-N18E/K269N; type: cell-based; details: against an EC80 concentration of succinate
T7 construct: expressed in transfected cells; host or cells: HEK-293T
T7 sequence (Q99MT6 1-317 N18E/K269N): T1 sequence (Q99MT6 1-317 N18E/G84W/K269N) with W84G
Experimental: G protein activation assays were carried out using the open-source TRUPATH platform previously described.[36]

Ki [1]	Ki [2]	G protein activation pEC50 at mSUCNR1 N18^1.31E, K269^7.32N, G84^EL1W ([3]; transiently transfected HEK-293T cells)	Competion binding using 46 hSUCNR1 pKi [4]	Nluc-mSUCNR1 cAMP pEC50 [5]	G protein activation pEC50 at mSUCNR1 [6]	cAMP hSUCNR1 pEC50 [7]	EC50 ([7]; read-out: cAMP hSUCNR1 pEC50 (converted))	Competion binding using 22 hSUCNR1 pKi [8]	Emax [9]	cAMP mSUCNR1 pEC50 [9]	cAMP mSUCNR1 pEC50 ([9]; listed as succinate)	Competion binding using 22 mSUCNR1 pKi [10]	IC50 [11]	cAMP hSUCNR1 pIC50 [12]	antagonism against mSUCNR1-N18^1.31E/K269^7.32N [13]	Compound	antagonism at mSUCNR1 N18^1.31E, K269^7.32N, G84^EL1W mutant ([3]; against an EC80 concentration of succinate)
631 µM	1000 µM	4.28 ± 0.09	3.2 ± 0.1	5.69 ± 0.11	5.29 ± 0.12	5.04 ± 0.02	~10 µM	3.7 ± 0.1	100%	5.02 ± 0.10	~5.0	3.3 ± 0.1	–	–	–	O=C(O)CCC(=O)O [Succinate]	–
0.0631 µM	0.0501 µM	–	7.1 ± 0.1	–	–	–	–	7.4 ± 0.1	–	–	–	5.1 ± 0.0	0.0794 µM	7.07 ± 0.21	no measurable antagonism	CN1CCN(Cc2ccc(-c3cccc(C(=O)Nc4ccccc4CC(=O)O)c3)cc2)CC1 [Compound 1, 4-((3′-((2-(Carboxymethyl)phenyl)carbamoyl)-[1,1′-biphenyl]-4-yl)methyl)-1-methylpiperazin-1-ium 2,2,2-trifluoroacetate]	a level of antagonism similar to that with hSUCNR1
